In patent US9067871B2, “Aminotetraline derivatives, pharmaceutical compositions containing them, and their use in therapy” (ABBVIE DEUTSCHLAND GMBH & CO KG, priority 2009, dated 2015):
Where a name gives a salt, the structure may show the parent alone.

Molecular target: human GlyT1c transporter (Homo sapiens (Human), UniProt P48067)
Assay: Radioligand binding assay using recombinant CHO cell membranes expressing human GlyT1
Conditions: human GlyT1c-expressing CHO cell membranes; read-out: radioligand binding Kiapp
Text: 2. Radioligand binding assays using recombinant CHO cell membranes expressing human GlyT1: […]

human GlyT1c transporter, sequence (P48067 whole entry): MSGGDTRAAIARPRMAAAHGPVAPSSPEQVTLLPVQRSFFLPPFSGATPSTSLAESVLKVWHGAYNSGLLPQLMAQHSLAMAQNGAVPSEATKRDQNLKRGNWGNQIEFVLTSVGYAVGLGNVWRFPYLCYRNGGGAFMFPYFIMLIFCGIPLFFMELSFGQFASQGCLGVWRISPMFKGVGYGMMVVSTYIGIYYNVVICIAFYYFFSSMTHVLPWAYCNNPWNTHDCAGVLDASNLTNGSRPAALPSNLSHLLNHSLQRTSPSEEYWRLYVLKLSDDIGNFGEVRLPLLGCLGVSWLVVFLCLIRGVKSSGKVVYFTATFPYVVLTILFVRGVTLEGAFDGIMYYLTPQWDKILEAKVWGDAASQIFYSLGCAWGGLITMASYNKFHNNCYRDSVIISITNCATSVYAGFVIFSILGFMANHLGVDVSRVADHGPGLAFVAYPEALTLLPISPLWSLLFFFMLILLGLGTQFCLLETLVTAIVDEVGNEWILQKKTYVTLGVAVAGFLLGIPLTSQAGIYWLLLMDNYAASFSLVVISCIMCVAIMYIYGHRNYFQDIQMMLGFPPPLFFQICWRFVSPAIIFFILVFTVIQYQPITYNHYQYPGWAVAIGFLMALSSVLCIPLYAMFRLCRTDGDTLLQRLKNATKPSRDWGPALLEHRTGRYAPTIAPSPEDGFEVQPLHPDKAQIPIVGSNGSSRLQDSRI

Row | Compound | Ki
1 | Cn1cnc(S(=O)(=O)NCc2ccc3c(c2)C(Cc2ccc(F)cc2)C(N)CC3)c1 (centres unmarked) [Example 176, N-{[7-Amino-8-(4-fluorobenzyl)-5,6,7,8-tetrahydronaphthalen-2-yl]methyl}-1-methyl-1H-imidazole-4-sulfonamide hydrochloride] | ≤ 100 nM
2 | Cn1cnc(S(=O)(=O)NCc2ccc3c(c2)C(Cc2cccc(F)c2)C(N)CC3)c1 (centres unmarked) [Example 177, N-{[7-Amino-8-(3-fluorobenzyl)-5,6,7,8-tetrahydronaphthalen-2-yl]methyl}-1-methyl-1H-imidazole-4-sulfonamide hydrochloride] | ≤ 10 nM
3 | Cn1cc(S(=O)(=O)NCc2ccc3c(c2)C(Cc2cccc(F)c2)C(N)CC3)cn1 (centres unmarked) [Example 178, N-{[7-Amino-8-(3-fluorobenzyl)-5,6,7,8-tetrahydronaphthalen-2-yl]methyl}-1-methyl-1H-pyrazole-4-sulfonamide hydrochloride] | ≤ 10 nM
4 | Cc1cccc(S(=O)(=O)NCc2ccc3c(c2)C(Cc2ccccc2)C(N)CC3)c1 (centres unmarked) [Example 179, N-{[7-Amino-8-benzyl-5,6,7,8-tetrahydronaphthalen-2-yl]methyl}-3-methylbenzenesulfonamide hydrochloride] | ≤ 1000 nM
5 | Cn1ccc(S(=O)(=O)NCc2ccc3c(c2)C(Cc2ccccc2)C(N)CC3)c1 (centres unmarked) [Example 180, N-{[7-Amino-8-benzyl-5,6,7,8-tetrahydronaphthalen-2-yl]methyl}-1-methyl-1H-pyrrole-3-sulfonamide hydrochloride] | ≤ 10 nM
6 | NC1CCc2ccc(CNS(=O)(=O)c3cccnc3)cc2C1Cc1ccccc1 (centres unmarked) [Example 181, N-{[7-Amino-8-benzyl-5,6,7,8-tetrahydronaphthalen-2-yl]methyl}pyridine-3-sulfonamide dihydrochloride] | ≤ 100 nM
7 | Cn1cc(S(=O)(=O)NCc2ccc3c(c2)C(Cc2ccccc2)C(N)CC3)c(C(F)(F)F)n1 (centres unmarked) [Example 182, N-{[7-Amino-8-benzyl-5,6,7,8-tetrahydronaphthalen-2-yl]methyl}-1-methyl-3-(trifluoromethyl)-1H-pyrazole-4-sulfonamide hydrochloride] | ≤ 100 nM
8 | Cn1ccc(S(=O)(=O)NCc2ccc3c(c2)C(Cc2ccccc2)C(N)CC3)n1 (centres unmarked) [Example 183, N-{[7-Amino-8-benzyl-5,6,7,8-tetrahydronaphthalen-2-yl]methyl}-1-methyl-1H-pyrazole-3-sulfonamide hydrochloride] | ≤ 1000 nM
9 | NC1CCc2ccc(CNS(=O)(=O)C3CCC3)cc2C1Cc1cccc(F)c1 (centres unmarked) [Example 184, N-{[7-Amino-8-(3-fluorobenzyl)-5,6,7,8-tetrahydronaphthalen-2-yl]methyl}cyclobutanesulfonamide hydrochloride] | ≤ 100 nM
10 | NC1CCc2ccc(CNS(=O)(=O)CC3CC3)cc2C1Cc1ccc(F)c(F)c1 (centres unmarked) [Example 185, N-{[7-Amino-8-(3,4-difluorobenzyl)-5,6,7,8-tetrahydronaphthalen-2-yl]methyl}-1-cyclopropylmethanesulfonamide hydrochloride] | ≤ 1000 nM
11 | NC1CCc2ccc(CNS(=O)(=O)C3CCC3)cc2C1Cc1ccc(F)c(F)c1 (centres unmarked) [Example 186, N-{[7-Amino-8-(3,4-difluorobenzyl)-5,6,7,8-tetrahydronaphthalen-2-yl]methyl}cyclobutanesulfonamide hydrochloride] | ≤ 1000 nM
12 | CNC1CCc2ccc(CNS(=O)(=O)C3CCC3)cc2C1Cc1ccccc1 (centres unmarked) [Example 188, N-{[8-Benzyl-7-(methylamino)-5,6,7,8-tetrahydronaphthalen-2-yl]methyl}cyclobutanesulfonamide hydrochloride] | ≤ 100 nM
13 | CNC1CCc2ccc(CNS(=O)(=O)c3cccc(C)c3)cc2C1Cc1ccccc1 (centres unmarked) [Example 189, N-{[8-Benzyl-7-(methylamino)-5,6,7,8-tetrahydronaphthalen-2-yl]methyl}-3-methylbenzenesulfonamide hydrochloride] | ≤ 10000 nM
14 | CNC1CCc2ccc(CNS(=O)(=O)c3ccn(C)c3)cc2C1Cc1ccccc1 (centres unmarked) [Example 190, N-{[8-Benzyl-7-(methylamino)-5,6,7,8-tetrahydronaphthalen-2-yl]methyl}-1-methyl-1H-pyrrole-3-sulfonamide hydrochloride] | ≤ 10 nM
15 | CNC1CCc2ccc(CNS(=O)(=O)c3ccn(C)n3)cc2C1Cc1ccccc1 (centres unmarked) [Example 191, N-{[8-Benzyl-7-(methylamino)-5,6,7,8-tetrahydronaphthalen-2-yl]methyl}-1-methyl-1H-pyrazole-3-sulfonamide hydrochloride] | ≤ 1000 nM
16 | CC(=O)NC1CCc2ccc(CNS(=O)(=O)c3cn(C)cn3)cc2C1Cc1ccc(F)cc1 (centres unmarked) [Example 197] | ≤ 10000 nM
17 | CCNC1CCc2ccc(CNS(=O)(=O)c3cn(C)cn3)cc2C1Cc1ccc(F)cc1 (centres unmarked) [Example 199, 1-Methyl-1H-imidazole-4-sulfonic acid [7-ethylamino-8-(4-fluoro-benzyl)-5,6,7,8-tetrahydro-naphthalen-2-ylmethyl]-amide hydrochloride] | ≤ 100 nM
18 | CCNC1CCc2ccc(CNS(=O)(=O)c3cnn(C)c3)cc2C1Cc1cccc(F)c1 (centres unmarked) [Example 200, 1-Methyl-1H-pyrazole-4-sulfonic acid [7-ethylamino-8-(3-fluoro-benzyl)-5,6,7,8-tetrahydronaphthalen-2-ylmethyl]-amide hydrochloride] | ≤ 100 nM

Row | Compound | Ki
19 | CCCS(=O)(=O)NCCCc1ccc2c(c1)C(Cc1ccc(Cl)cc1)C(N)CC2 (centres unmarked) [Example 201, N-{3-[7-Amino-8-(4-chlorobenzyl)-5,6,7,8-tetrahydronaphthalen-2-yl]propyl}propane-1-sulfonamide hydrochloride] | ≤ 100 nM
20 | NC1CCc2ccc(CCCNS(=O)(=O)CC3CC3)cc2C1Cc1ccc(Cl)cc1 (centres unmarked) [Example 202, N-{3-[7-Amino-8-(4-chlorobenzyl)-5,6,7,8-tetrahydronaphthalen-2-yl]propyl}-1-cyclopropylmethanesulfonamide hydrochloride] | ≤ 100 nM
21 | CCCS(=O)(=O)NCCCc1ccc2c(c1)C(Cc1ccc(Cl)c(Cl)c1)C(N)CC2 (centres unmarked) [Example 203, N-{3-[7-Amino-8-(3,4-dichlorobenzyl)-5,6,7,8-tetrahydronaphthalen-2-yl]propyl}propane-1-sulfonamide hydrochloride] | ≤ 10 nM
22 | NC1CCc2ccc(CCCNS(=O)(=O)CC3CC3)cc2C1Cc1ccc(F)c(F)c1 (centres unmarked) [Example 204, N-{3-[7-Amino-8-(3,4-difluoro-benzyl)-5,6,7,8-tetrahydro-naphthalen-2-yl]-propyl}-C-cyclopropyl-methanesulfonamide hydrochloride] | ≤ 100 nM
23 | CCCS(=O)(=O)NCCCc1ccc2c(c1)C(Cc1ccc(F)c(F)c1)C(N)CC2 (centres unmarked) [Example 206, N-{3-[7-Amino-8-(3,4-difluoro-benzyl)-5,6,7,8-tetrahydronaphthalen-2-yl]propyl}propane-1-sulfonamide hydrochloride] | ≤ 100 nM
24 | NC1CCc2ccc(CCCNS(=O)(=O)CC3CC3)cc2C1Cc1ccccc1 (centres unmarked) [Example 207, N-{3-[7-Amino-8-benzyl-5,6,7,8-tetrahydronaphthalen-2-yl]propyl}-1-cyclopropylmethanesulfonamide trifluoroacetate] | ≤ 100 nM
25 | NC1CCc2ccc(CCCNS(=O)(=O)CC3CC3)cc2C1Cc1ccc(F)cc1 (centres unmarked) [Example 208, N-{3-[7-Amino-8-(4-fluorobenzyl)-5,6,7,8-tetrahydronaphthalen-2-yl]propyl}-1-cyclopropylmethanesulfonamide hydrochloride] | ≤ 100 nM
26 | CCCS(=O)(=O)NCCCc1ccc2c(c1)C(Cc1cccc(F)c1)C(N)CC2 (centres unmarked) [Example 209, N-{3-[7-Amino-8-(3-fluorobenzyl)-5,6,7,8-tetrahydronaphthalen-2-yl]propyl}propane-1-sulfonamide hydrochloride] | ≤ 100 nM
27 | NC1CCc2ccc(CCCNS(=O)(=O)CC3CC3)cc2C1Cc1cccc(F)c1 (centres unmarked) [Example 210, N-{3-[7-Amino-8-(3-fluorobenzyl)-5,6,7,8-tetrahydronaphthalen-2-yl]propyl}-1-cyclopropylmethanesulfonamide hydrochloride] | ≤ 100 nM
28 | CCCS(=O)(=O)NCCCc1ccc2c(c1)C(Cc1ccccc1Cl)C(N)CC2 (centres unmarked) [Example 211, N-{3-[7-Amino-8-(2-chlorobenzyl)-5,6,7,8-tetrahydronaphthalen-2-yl]propyl}propane-1-sulfonamide hydrochloride] | ≤ 1000 nM
29 | NC1CCc2ccc(CCCNS(=O)(=O)CC3CC3)cc2C1Cc1ccccc1Cl (centres unmarked) [Example 212, N-{3-[7-Amino-8-(2-chloro-benzyl)-5,6,7,8-tetrahydro-naphthalen-2-yl]-propyl}-C-cyclopropyl-methanesulfonamide hydrochloride] | ≤ 1000 nM
30 | CCCS(=O)(=O)NCCCc1ccc2c(c1)C(Cc1ccc(F)cc1)C(N)CC2 (centres unmarked) [Example 213, N-{3-[7-Amino-8-(4-fluorobenzyl)-5,6,7,8-tetrahydronaphthalen-2-yl]propyl}propane-1-sulfonamide hydrochloride] | ≤ 100 nM
31 | CCCS(=O)(=O)NCCCc1ccc2c(c1)C(Cc1cccc(F)c1)C(NC(C)=O)CC2 (centres unmarked) [Example 214, N-[1-(3-Fluorobenzyl)-7-{3-[(propylsulfonyl)amino]propyl}-1,2,3,4-tetrahydronaphthalen-2-yl]acetamide] | ≤ 10000 nM
32 | CCCS(=O)(=O)NCCCc1ccc2c(c1)C(Cc1ccc(F)cc1)C(NC(C)=O)CC2 (centres unmarked) [Example 215, N-[1-(4-Fluorobenzyl)-7-{3-[(propylsulfonyl)amino]propyl}-1,2,3,4-tetrahydronaphthalen-2-yl]acetamide] | ≤ 10000 nM
33 | CC(=O)NC1CCc2ccc(CCCNS(=O)(=O)CC3CC3)cc2C1Cc1ccccc1 (centres unmarked) [Example 216, N-[1-Benzyl-7-(3-{[(cyclopropylmethyl)sulfonyl]amino}propyl)-1,2,3,4-tetrahydronaphthalen-2-yl]acetamide] | ≤ 10000 nM
34 | CCCS(=O)(=O)NCCCc1ccc2c(c1)C(Cc1ccccc1)C(NC(C)=O)CC2 (centres unmarked) [Example 217, N-[1-Benzyl-7-{3-[(propylsulfonyl)amino]propyl}-1,2,3,4-tetrahydronaphthalen-2-yl]acetamide] | ≤ 10000 nM
35 | CC(=O)NC1CCc2ccc(CCCNS(=O)(=O)CC3CC3)cc2C1Cc1cccc(F)c1 (centres unmarked) [Example 218, N-[7-(3-{[(Cyclopropylmethyl)sulfonyl]amino}propyl)-1-(3-fluorobenzyl)-1,2,3,4-tetrahydronaphthalen-2-yl]acetamide] | ≤ 10000 nM
